The test concerns the target T1, human β2 adrenergic receptor (Homo sapiens, UniProt P07550).
T1 construct: expressed in transfected cells; host or cells: CHO (Chinese Hamster Ovary) cells, CHOhβ2
As to the kind of experiment: Cell based cAMP assay in CHO cells recombinantly expressing the human β2 adrenergic receptor (cAMP-Flashplate). As to conditions: CHOhβ2 cells, 1 hour incubation. The method, then: According to another alternative, the agonist potency for the […] of the indole derivatives of the formula (1) may also be determined by the measure of the concentration of compound according to the present invention required to produce half maximal effect (EC50) for the β2 receptor.
10 mM/100% DMSO (dimethylsulfoxide) stock of compound is diluted to required top dose in 4% DMSO. This top dose is used to construct a 10-point semi-log dilution curve, all in 4% DMSO. […] Data was expressed as % Isoprenaline response.
Cells were seeded to give about 90% confluency for testing.
25 μl/well each dose of compound was transferred into a cAMP-Flashplate® (NEN, SMP004B), with 1% DMSO as basal controls and 100 nM Isoprenaline as max controls. This was diluted 1:2 by the addition of 25 μl/well PBS. […] Compounds were incubated with 50 μl/well cells for 1 hour. […] Dose-response data was expressed as % Isoprenaline activity and fitted using a four parameter sigmoid fit.
Background: Cyclic AMP is a second messenger, typically raised through Gs and lowered through Gi signalling.

Results on eight compounds are retold here after patent publication US7138527B2, “Indole derivatives useful for the treatment of diseases” (Pfizer Inc., priority 2002, dated 2006).

The term EC50 denotes the midpoint of the concentration-response curve.

T1 sequence (P07550 whole entry): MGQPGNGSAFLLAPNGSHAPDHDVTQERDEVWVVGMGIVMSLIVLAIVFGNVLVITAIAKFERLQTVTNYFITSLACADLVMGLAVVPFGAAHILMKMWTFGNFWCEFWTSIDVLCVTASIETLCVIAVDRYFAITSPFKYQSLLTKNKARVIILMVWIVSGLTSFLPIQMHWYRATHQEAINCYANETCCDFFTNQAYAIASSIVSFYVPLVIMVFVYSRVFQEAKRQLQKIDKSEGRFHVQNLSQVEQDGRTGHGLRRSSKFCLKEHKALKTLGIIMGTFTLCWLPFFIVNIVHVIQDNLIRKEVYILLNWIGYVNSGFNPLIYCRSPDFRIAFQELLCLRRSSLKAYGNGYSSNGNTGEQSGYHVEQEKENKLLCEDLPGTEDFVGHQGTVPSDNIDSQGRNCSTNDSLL

Turning to `COc1ccccc1CNC(=O)c1cc2cc(C[C@@H](C)NC[C@H](O)c3ccc(O)c(CO)c3)ccc2[nH]1` [Example 1, 5-[(2R)-2-({(2R)-2-hydroxy-2-[4-hydroxy-3-(hydroxymethyl)phenyl]ethyl}amino)propyl]-N-(2-methoxybenzyl)-1H-indole-2-carboxamide], the half-maximal effective concentration (EC50) came out at 0.02 nM. The figure for `C[C@H](Cc1ccc2[nH]c(C(=O)NCc3ccc(C(F)(F)F)cc3)cc2c1)NC[C@H](O)c1ccc(O)c(CO)c1` [Example 2, 5-[(2R)-2-({(2R)-2-hydroxy-2-[4-hydroxy-3-(hydroxymethyl)phenyl]ethyl}amino)propyl]-N-[4-(trifluoromethyl)benzyl]-1H-indole-2-carboxamide] is 0.8 nM; for `COc1cccc(OC)c1CNC(=O)c1cc2cc(C[C@@H](C)NC[C@H](O)c3ccc(O)c(CO)c3)ccc2[nH]1` [Example 3, N-(2,6-dimethoxybenzyl)-5-[(2R)-2-({(2R)-2-hydroxy-2-[4-hydroxy-3-(hydroxymethyl)phenyl]ethyl}amino)propyl]-1H-indole-2-carboxamide] it is 0.05 nM; for `COc1cccc(CNC(=O)c2cc3cc(C[C@@H](C)NC[C@H](O)c4ccc(O)c(CO)c4)ccc3[nH]2)c1` [Example 4, 5-[(2R)-2-({(2R)-2-hydroxy-2-[4-hydroxy-3-(hydroxymethyl)phenyl]ethyl}amino)propyl]-N-(3-methoxybenzyl)-1H-indole-2-carboxamide] it is 0.12 nM. The figure for `COc1cc(O)cc(OC)c1CNC(=O)c1cc2cc(C[C@@H](C)NC[C@H](O)c3ccc(O)c(CO)c3)ccc2[nH]1` [Example 9, 5-[(2R)-2-({(2R)-2-Hydroxy-2-(4-hydroxy-3-hydroxymethylphenyl)ethyl]amino)propyl]-N-(4-hydroxy-2,6-dimethoxybenzyl)-1H-indole-2-carboxamide] is 0.02 nM. The figure for `C[C@H](Cc1ccc2[nH]c(C(=O)N(C)Cc3ccccc3)cc2c1)NC[C@H](O)c1ccc(O)c(CO)c1` [Example 22, 5-[(2R)-2-({(2R)-2-Hydroxy-2-(4-hydroxy-3-hydroxymethylphenyl)ethyl}amino)propyl}-N-benzyl-N-methyl-1H-indole-2-carboxamide] is 0.02 nM; for `CCn1c(C(=O)NCc2ccc(Cl)cc2)cc2cc(C[C@@H](C)NC[C@H](O)c3ccc(O)c(CO)c3)ccc21` [Example 29, 1-Ethyl-5-[(2R)-2-({(2R)-2-hydroxy-2-(4-hydroxy-3-hydroxymethylphenyl)ethyl}amino)propyl}-N-(4-chlorobenzyl)-1H-indole-2-carboxamide] it is 3.99 nM; for `CC[C@H](Cc1ccc2[nH]c(C(=O)NCc3ccccc3)cc2c1)NC[C@H](O)c1ccc(O)c(CO)c1` [Example 36, 5-[(2R)-2-({(2R)-2-Hydroxy-2-(4-hydroxy-3-hydroxymethylphenyl)ethyl]amino)butyl}-N-benzyl-1H-indole-2-carboxamide] it is 0.38 nM.
